From patent publication US20230085307A1, “PYRIDAZINONE COMPOUND AND HERBICIDE” (NISSAN CHEMICAL CORPORATION, priority 2019, published 2023)

What was measured:
barnyard grass [1] = experiment: Test Example 3: herbicidal effect by foliage application, Wagner pot (Table 18, symbol H); assay type: in vivo, barnyard grass (Echinochloa crus-galli); settings: amount of applied herbicide 320 g/ha
Method in brief: (§1)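 Plants were sown in alluvial soil held under 0.1–0.5 cm standing water and grown 14 days in a greenhouse at 25–30 °C. An emulsifiable formulation, water-diluted to the set dose, was then sprayed onto the foliage, and effects were scored three weeks later using previously defined criteria.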

Chinese sprangletop = experiment: Test Example 3: herbicidal effect by foliage application, Wagner pot (Table 18, symbol D); assay type: in vivo, chinese sprangletop (Leptochloa chinensis); settings: amount of applied herbicide 320 g/ha
Method in brief: as §1

rice flat sedge = experiment: Test Example 3: herbicidal effect by foliage application, Wagner pot (Table 18, symbol E); assay type: in vivo, rice flat sedge (Cyperus iria); settings: amount of applied herbicide 320 g/ha
Method in brief: as §1

southern crabgrass [2] = experiment: Test Example 4: herbicidal effect by soil treatment (Table 19, symbol F); assay type: in vivo, southern crabgrass (Digitaria ciliaris); settings: amount of applied herbicide 320 g/ha
Method in brief: (§2)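 Step 1: sow seeds in sterilized diluvial soil, cover ~1.5 cm. Step 2: spray diluted emulsion onto soil surface at predetermined rate. Step 3: greenhouse, 25–30° C, three weeks. Step 4: grade effect on each plant by earlier criteria.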

green foxtail [3] = experiment: Test Example 4: herbicidal effect by soil treatment (Table 19, symbol G); assay type: in vivo, green foxtail (Setaria viridis); settings: amount of applied herbicide 320 g/ha
Method in brief: as §2

barnyard grass [4] = experiment: Test Example 4: herbicidal effect by soil treatment (Table 19, symbol H); assay type: in vivo, barnyard grass (Echinochloa crus-galli); settings: amount of applied herbicide 320 g/ha
Method in brief: as §2

wild oat [5] = experiment: Test Example 4: herbicidal effect by soil treatment (Table 19, symbol I); assay type: in vivo, wild oat (Avena fatua); settings: amount of applied herbicide 320 g/ha
Method in brief: as §2

blackgrass [6] = experiment: Test Example 4: herbicidal effect by soil treatment (Table 19, symbol J); assay type: in vivo, blackgrass (Alopecurus myosuroides); settings: amount of applied herbicide 320 g/ha
Method in brief: as §2

Italian ryegrass [7] = experiment: Test Example 4: herbicidal effect by soil treatment (Table 19, symbol K); assay type: in vivo, Italian ryegrass (Lolium multiflorum); settings: amount of applied herbicide 320 g/ha
Method in brief: as §2

windgrass [8] = experiment: Test Example 4: herbicidal effect by soil treatment (Table 19, symbol L); assay type: in vivo, windgrass (Apera spica-venti); settings: amount of applied herbicide 320 g/ha
Method in brief: as §2

velvetleaf [9] = experiment: Test Example 4: herbicidal effect by soil treatment (Table 19, symbol M); assay type: in vivo, velvetleaf (Abutilon theophrasti); settings: amount of applied herbicide 320 g/ha
Method in brief: as §2

redroot pigweed [10] = experiment: Test Example 4: herbicidal effect by soil treatment (Table 19, symbol N); assay type: in vivo, redroot pigweed (Amaranthus retroflexus); settings: amount of applied herbicide 320 g/ha
Method in brief: as §2

lambsquarters [11] = experiment: Test Example 4: herbicidal effect by soil treatment (Table 19, symbol O); assay type: in vivo, lambsquarters (Chenopodium album); settings: amount of applied herbicide 320 g/ha
Method in brief: as §2

chickweed [12] = experiment: Test Example 4: herbicidal effect by soil treatment (Table 19, symbol P); assay type: in vivo, common chickweed (Stellaria media); settings: amount of applied herbicide 320 g/ha
Method in brief: as §2

persian speedwell [13] = experiment: Test Example 4: herbicidal effect by soil treatment (Table 19, symbol R); assay type: in vivo, Persian speedwell (Veronica persica); settings: amount of applied herbicide 320 g/ha
Method in brief: as §2

southern crabgrass [14] = experiment: Test Example 5: herbicidal effect by foliage application, plastic box (Table 20, symbol F); assay type: in vivo, southern crabgrass (Digitaria ciliaris); settings: foliage application, 320 g/ha, evaluated three weeks after application
Method in brief: (§3)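 Foliar spray test: emulsion formulation diluted in water to a set application rate, sprayed onto 14-day-old plants raised in diluvial soil at 25° C to 30° C under glass. Both herbicidal effect and crop effect rated visually three weeks later.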

green foxtail [15] = experiment: Test Example 5: herbicidal effect by foliage application, plastic box (Table 20, symbol G); assay type: in vivo, green foxtail (Setaria viridis); settings: foliage application, 320 g/ha, evaluated three weeks after application
Method in brief: as §3

barnyard grass [16] = experiment: Test Example 5: herbicidal effect by foliage application, plastic box (Table 20, symbol H); assay type: in vivo, barnyard grass (Echinochloa crus-galli); settings: foliage application, 320 g/ha, evaluated three weeks after application
Method in brief: as §3

wild oat [17] = experiment: Test Example 5: herbicidal effect by foliage application, plastic box (Table 20, symbol I); assay type: in vivo, wild oat (Avena fatua); settings: foliage application, 320 g/ha, evaluated three weeks after application
Method in brief: as §3

blackgrass [18] = experiment: Test Example 5: herbicidal effect by foliage application, plastic box (Table 20, symbol J); assay type: in vivo, blackgrass (Alopecurus myosuroides); settings: foliage application, 320 g/ha, evaluated three weeks after application
Method in brief: as §3

Italian ryegrass [19] = experiment: Test Example 5: herbicidal effect by foliage application, plastic box (Table 20, symbol K); assay type: in vivo, Italian ryegrass (Lolium multiflorum); settings: foliage application, 320 g/ha, evaluated three weeks after application
Method in brief: as §3

windgrass [20] = experiment: Test Example 5: herbicidal effect by foliage application, plastic box (Table 20, symbol L); assay type: in vivo, windgrass (Apera spica-venti); settings: foliage application, 320 g/ha, evaluated three weeks after application
Method in brief: as §3

velvetleaf [21] = experiment: Test Example 5: herbicidal effect by foliage application, plastic box (Table 20, symbol M); assay type: in vivo, velvetleaf (Abutilon theophrasti); settings: foliage application, 320 g/ha, evaluated three weeks after application
Method in brief: as §3

redroot pigweed [22] = experiment: Test Example 5: herbicidal effect by foliage application, plastic box (Table 20, symbol N); assay type: in vivo, redroot pigweed (Amaranthus retroflexus); settings: foliage application, 320 g/ha, evaluated three weeks after application
Method in brief: as §3

lambsquarters [23] = experiment: Test Example 5: herbicidal effect by foliage application, plastic box (Table 20, symbol O); assay type: in vivo, lambsquarters (Chenopodium album); settings: foliage application, 320 g/ha, evaluated three weeks after application
Method in brief: as §3

chickweed [24] = experiment: Test Example 5: herbicidal effect by foliage application, plastic box (Table 20, symbol P); assay type: in vivo, common chickweed (Stellaria media); settings: foliage application, 320 g/ha, evaluated three weeks after application
Method in brief: as §3

persian speedwell [25] = experiment: Test Example 5: herbicidal effect by foliage application, plastic box (Table 20, symbol R); assay type: in vivo, Persian speedwell (Veronica persica); settings: foliage application, 320 g/ha, evaluated three weeks after application
Method in brief: as §3

Row | Structure (SMILES) | herbicidal effect on H: barnyard grass (barnyard grass [1]) | herbicidal effect on D: Chinese sprangletop (Chinese sprangletop) | herbicidal effect on E: rice flat sedge (rice flat sedge) | F: southern crabgrass, herbicidal effect rating (southern crabgrass [2]) | G: green foxtail, herbicidal effect rating (green foxtail [3]) | H: barnyard grass, herbicidal effect rating (barnyard grass [4]) | I: wild oat, herbicidal effect rating (wild oat [5]) | J: blackgrass, herbicidal effect rating (blackgrass [6]) | K: Italian ryegrass, herbicidal effect rating (Italian ryegrass [7]) | L: windgrass, herbicidal effect rating (windgrass [8]) | M: velvetleaf, herbicidal effect rating (velvetleaf [9]) | N: redroot pigweed, herbicidal effect rating (redroot pigweed [10]) | O: lambsquarters, herbicidal effect rating (lambsquarters [11]) | P: chickweed, herbicidal effect rating (chickweed [12]) | R: persian speedwell, herbicidal effect rating (persian speedwell [13]) | herbicidal effect on F: southern crabgrass (southern crabgrass [14]) | herbicidal effect on G: green foxtail (green foxtail [15]) | herbicidal effect on H: barnyard grass (barnyard grass [16]) | herbicidal effect on I: wild oat (wild oat [17]) | herbicidal effect on J: blackgrass (blackgrass [18]) | other results
1 | Cc1ccc2sc(-c3ccc(F)cc3)c(-c3c(O)c(C)nn(C)c3=O)c2c1 [2-134] | 3 (Herbicidal rate of 40% or more and less than 70%) | 0 (Herbicidal rate of 5% or less (almost no effect)) | 5 (Herbicidal rate of 90% or more (almost completely withered)) | 2 (Herbicidal rate of 20% or more and less than 40%) | 0 (Herbicidal rate of 5% or less (almost no effect)) | 0 (Herbicidal rate of 5% or less (almost no effect)) | 0 (Herbicidal rate of 5% or less (almost no effect)) | 0 (Herbicidal rate of 5% or less (almost no effect)) | 0 (Herbicidal rate of 5% or less (almost no effect)) | 0 (Herbicidal rate of 5% or less (almost no effect)) | 0 (Herbicidal rate of 5% or less (almost no effect)) | 5 (Herbicidal rate of 90% or more (almost completely withered)) | 5 (Herbicidal rate of 90% or more (almost completely withered)) | 4 (Herbicidal rate of 70% or more and less than 90%) | 4 (Herbicidal rate of 70% or more and less than 90%) | 0 (Herbicidal rate of 5% or less (almost no effect)) | 0 (Herbicidal rate of 5% or less (almost no effect)) | 0 (Herbicidal rate of 5% or less (almost no effect)) | 0 (Herbicidal rate of 5% or less (almost no effect)) | 0 (Herbicidal rate of 5% or less (almost no effect)) | herbicidal effect on K: Italian ryegrass (Italian ryegrass [19]): 3 (Herbicidal rate of 40% or more and less than 70%); herbicidal effect on L: windgrass (windgrass [20]): 0 (Herbicidal rate of 5% or less (almost no effect)); herbicidal effect on M: velvetleaf (velvetleaf [21]): 5 (Herbicidal rate of 90% or more (almost completely withered)); herbicidal effect on N: redroot pigweed (redroot pigweed [22]): 5 (Herbicidal rate of 90% or more (almost completely withered)); herbicidal effect on O: lambsquarters (lambsquarters [23]): 4 (Herbicidal rate of 70% or more and less than 90%); herbicidal effect on P: chickweed (chickweed [24]): 5 (Herbicidal rate of 90% or more (almost completely withered)); herbicidal effect on R: persian speedwell (persian speedwell [25]): 5 (Herbicidal rate of 90% or more (almost completely withered))
2 | Cc1ccc(-c2sc3ccc(C)cc3c2-c2c(O)c(C)nn(C)c2=O)cc1 [2-136] | 2 (Herbicidal rate of 20% or more and less than 40%) | 0 (Herbicidal rate of 5% or less (almost no effect)) | 5 (Herbicidal rate of 90% or more (almost completely withered)) | 3 (Herbicidal rate of 40% or more and less than 70%) | 0 (Herbicidal rate of 5% or less (almost no effect)) | 0 (Herbicidal rate of 5% or less (almost no effect)) | 0 (Herbicidal rate of 5% or less (almost no effect)) | 0 (Herbicidal rate of 5% or less (almost no effect)) | 3 (Herbicidal rate of 40% or more and less than 70%) | 0 (Herbicidal rate of 5% or less (almost no effect)) | 0 (Herbicidal rate of 5% or less (almost no effect)) | 5 (Herbicidal rate of 90% or more (almost completely withered)) | 5 (Herbicidal rate of 90% or more (almost completely withered)) | 4 (Herbicidal rate of 70% or more and less than 90%) | 5 (Herbicidal rate of 90% or more (almost completely withered)) | 0 (Herbicidal rate of 5% or less (almost no effect)) | 0 (Herbicidal rate of 5% or less (almost no effect)) | 0 (Herbicidal rate of 5% or less (almost no effect)) | 0 (Herbicidal rate of 5% or less (almost no effect)) | 0 (Herbicidal rate of 5% or less (almost no effect)) | herbicidal effect on K: Italian ryegrass (Italian ryegrass [19]): 5 (Herbicidal rate of 90% or more (almost completely withered)); herbicidal effect on L: windgrass (windgrass [20]): 0 (Herbicidal rate of 5% or less (almost no effect)); herbicidal effect on M: velvetleaf (velvetleaf [21]): 5 (Herbicidal rate of 90% or more (almost completely withered)); herbicidal effect on N: redroot pigweed (redroot pigweed [22]): 5 (Herbicidal rate of 90% or more (almost completely withered)); herbicidal effect on O: lambsquarters (lambsquarters [23]): 4 (Herbicidal rate of 70% or more and less than 90%); herbicidal effect on P: chickweed (chickweed [24]): 5 (Herbicidal rate of 90% or more (almost completely withered)); herbicidal effect on R: persian speedwell (persian speedwell [25]): 5 (Herbicidal rate of 90% or more (almost completely withered))
